# Measurements published in ChEMBL document CHEMBL3885881, “DrugMatrix”.
# Species: Rattus norvegicus
# Experiment: DrugMatrix - Regimen: Daily Repeat
# Type: toxicity, organism-based, Sprague-Dawley
# Design: regimen Daily Repeat, gender Male, age 6-8 weeks
# Details: in vivo, po, route oral GAVAGE, vehicle 100 % WATER; for BASOPHIL / EOSINOPHIL / ERYTHROCYTE COUNT / HEMATOCRIT / HEMOGLOBIN / LEUKOCYTE COUNT / LYMPHOCYTE / MEAN CORPUSCULAR HEMOGLOBIN / MEAN CORPUSCULAR HEMOGLOBIN CONCENTRATION / MEAN CORPUSCULAR VOLUME / MONOCYTE / NEUTROPHIL / PLATELET COUNT: tissue Blood; for ALANINE AMINOTRANSFERASE / ALBUMIN / ALKALINE PHOSPHATASE / ASPARTATE AMINOTRANSFERASE / BLOOD UREA NITROGEN / CHLORIDE / CHOLESTEROL / CREATINE PHOSPHOKINASE / CREATININE / GLUCOSE / PHOSPHORUS / POTASSIUM / SODIUM / TOTAL BILIRUBIN / TOTAL PROTEIN: tissue Plasma
# [1] = 0 mg/kg, 72 h, dose level Control, time 3 day
# [2] = 0 mg/kg, 120 h, dose level Control, time 5 day
# [3] = 3 mg/kg, 72 h, dose level Low, time 3 day
# [4] = 3 mg/kg, 120 h, dose level Low, time 5 day
# [5] = 24 mg/kg, 72 h, dose level High, time 3 day
# [6] = 24 mg/kg, 120 h, dose level High, time 5 day
structure (smiles),measurement,setting,value
Nc1c2c(nc3ccccc13)CCCC2 [TACRINE],BASOPHIL,[1],0%
same,EOSINOPHIL,[1],0.5%
same,ERYTHROCYTE COUNT,[1],5.8 x10E6/uL
same,HEMATOCRIT,[1],35.07%
same,HEMOGLOBIN,[1],14.12 G/DL
same,LEUKOCYTE COUNT,[1],13.7 x10E3/uL
same,LYMPHOCYTE,[1],82.33%
same,MEAN CORPUSCULAR HEMOGLOBIN,[1],24.38 pg
same,MEAN CORPUSCULAR HEMOGLOBIN CONCENTRATION,[1],40.28 G/DL
same,MEAN CORPUSCULAR VOLUME,[1],60.52 fL
same,MONOCYTE,[1],2.67%
same,NEUTROPHIL,[1],14.5%
same,PLATELET COUNT,[1],911.5 x10E3/uL
same,ALANINE AMINOTRANSFERASE,[1],36.83 u/L
same,ALBUMIN,[1],3.75 G/DL
same,ALKALINE PHOSPHATASE,[1],399.83 u/L
same,ASPARTATE AMINOTRANSFERASE,[1],66 u/L
same,BLOOD UREA NITROGEN,[1],14.67 mg/dL
same,CHLORIDE,[1],101.67 MEQ/L
same,CHOLESTEROL,[1],66.33 mg/dL
same,CREATINE PHOSPHOKINASE,[1],139.5 u/L
same,CREATININE,[1],0.92 mg/dL
same,GLUCOSE,[1],175 mg/dL
same,PHOSPHORUS,[1],11.42 mg/dL
same,POTASSIUM,[1],7.03 MEQ/L
same,SODIUM,[1],148.5 MEQ/L
same,TOTAL BILIRUBIN,[1],1.13 mg/dL
same,TOTAL PROTEIN,[1],6.87 G/DL
same,BASOPHIL,[2],0%
same,EOSINOPHIL,[2],0.2%
same,ERYTHROCYTE COUNT,[2],6.02 x10E6/uL
same,HEMATOCRIT,[2],36.48%
same,HEMOGLOBIN,[2],14.38 G/DL
same,LEUKOCYTE COUNT,[2],12.34 x10E3/uL
same,LYMPHOCYTE,[2],83%
same,MEAN CORPUSCULAR HEMOGLOBIN,[2],23.92 pg
same,MEAN CORPUSCULAR HEMOGLOBIN CONCENTRATION,[2],39.44 G/DL
same,MEAN CORPUSCULAR VOLUME,[2],60.66 fL
same,MONOCYTE,[2],3%
same,NEUTROPHIL,[2],13.8%
same,PLATELET COUNT,[2],1190.6 x10E3/uL
same,ALANINE AMINOTRANSFERASE,[2],43 u/L
same,ALBUMIN,[2],3.73 G/DL
same,ALKALINE PHOSPHATASE,[2],393 u/L
same,ASPARTATE AMINOTRANSFERASE,[2],62.33 u/L
same,BLOOD UREA NITROGEN,[2],16.33 mg/dL
same,CHLORIDE,[2],101.67 MEQ/L
same,CHOLESTEROL,[2],65.5 mg/dL
same,CREATINE PHOSPHOKINASE,[2],130.67 u/L
same,CREATININE,[2],0.58 mg/dL
same,GLUCOSE,[2],180.67 mg/dL
same,PHOSPHORUS,[2],11.28 mg/dL
same,POTASSIUM,[2],7.05 MEQ/L
same,SODIUM,[2],148.17 MEQ/L
same,TOTAL BILIRUBIN,[2],0.72 mg/dL
same,TOTAL PROTEIN,[2],6.83 G/DL
same,BASOPHIL,[3],0%
same,EOSINOPHIL,[3],0.33%
same,ERYTHROCYTE COUNT,[3],5.96 x10E6/uL
same,HEMATOCRIT,[3],36.4%
same,HEMOGLOBIN,[3],14.47 G/DL
same,LEUKOCYTE COUNT,[3],12.6 x10E3/uL
same,LYMPHOCYTE,[3],87.33%
same,MEAN CORPUSCULAR HEMOGLOBIN,[3],24.3 pg
same,MEAN CORPUSCULAR HEMOGLOBIN CONCENTRATION,[3],39.77 G/DL
same,MEAN CORPUSCULAR VOLUME,[3],61.13 fL
same,MONOCYTE,[3],1.67%
same,NEUTROPHIL,[3],10.67%
same,PLATELET COUNT,[3],1303 x10E3/uL
same,ALANINE AMINOTRANSFERASE,[3],36.33 u/L
same,ALBUMIN,[3],3.6 G/DL
same,ALKALINE PHOSPHATASE,[3],362.33 u/L
same,ASPARTATE AMINOTRANSFERASE,[3],59 u/L
same,BLOOD UREA NITROGEN,[3],11.33 mg/dL
same,CHLORIDE,[3],102.67 MEQ/L
same,CHOLESTEROL,[3],64.33 mg/dL
same,CREATINE PHOSPHOKINASE,[3],137.67 u/L
same,CREATININE,[3],0.53 mg/dL
same,GLUCOSE,[3],188 mg/dL
same,PHOSPHORUS,[3],12.8 mg/dL
same,POTASSIUM,[3],7.17 MEQ/L
same,SODIUM,[3],151.33 MEQ/L
same,TOTAL BILIRUBIN,[3],0.37 mg/dL
same,BASOPHIL,[4],0%
same,EOSINOPHIL,[4],0%
same,ERYTHROCYTE COUNT,[4],5.42 x10E6/uL
same,HEMATOCRIT,[4],32.47%
same,HEMOGLOBIN,[4],13.8 G/DL
same,LEUKOCYTE COUNT,[4],15.5 x10E3/uL
same,LYMPHOCYTE,[4],85.67%
same,MEAN CORPUSCULAR HEMOGLOBIN,[4],25.47 pg
same,MEAN CORPUSCULAR HEMOGLOBIN CONCENTRATION,[4],42.53 G/DL
same,MEAN CORPUSCULAR VOLUME,[4],59.87 fL
same,MONOCYTE,[4],2%
same,NEUTROPHIL,[4],12.33%
same,PLATELET COUNT,[4],1161.67 x10E3/uL
same,ALANINE AMINOTRANSFERASE,[4],32 u/L
same,ALBUMIN,[4],3.63 G/DL
same,ALKALINE PHOSPHATASE,[4],344.33 u/L
same,ASPARTATE AMINOTRANSFERASE,[4],54 u/L
same,BLOOD UREA NITROGEN,[4],12.67 mg/dL
same,CHLORIDE,[4],103 MEQ/L
same,CHOLESTEROL,[4],67.33 mg/dL
same,CREATINE PHOSPHOKINASE,[4],106 u/L
same,CREATININE,[4],0.57 mg/dL
same,GLUCOSE,[4],184.33 mg/dL
same,PHOSPHORUS,[4],12.4 mg/dL
same,POTASSIUM,[4],6.33 MEQ/L
same,SODIUM,[4],150.33 MEQ/L
same,TOTAL BILIRUBIN,[4],0.37 mg/dL
same,TOTAL PROTEIN,[4],6.6 G/DL
same,BASOPHIL,[5],0%
same,EOSINOPHIL,[5],0.33%
same,ERYTHROCYTE COUNT,[5],6.15 x10E6/uL
same,HEMATOCRIT,[5],36.57%
same,HEMOGLOBIN,[5],14.57 G/DL
same,LEUKOCYTE COUNT,[5],11.57 x10E3/uL
same,LYMPHOCYTE,[5],88%
same,MEAN CORPUSCULAR HEMOGLOBIN,[5],23.7 pg
same,MEAN CORPUSCULAR HEMOGLOBIN CONCENTRATION,[5],39.83 G/DL
same,MEAN CORPUSCULAR VOLUME,[5],59.5 fL
same,MONOCYTE,[5],2.67%
same,NEUTROPHIL,[5],9%
same,PLATELET COUNT,[5],1311.33 x10E3/uL
same,ALANINE AMINOTRANSFERASE,[5],35.33 u/L
same,ALBUMIN,[5],3.7 G/DL
same,ALKALINE PHOSPHATASE,[5],375 u/L
same,ASPARTATE AMINOTRANSFERASE,[5],63.67 u/L
same,BLOOD UREA NITROGEN,[5],12 mg/dL
same,CHLORIDE,[5],101.67 MEQ/L
same,CHOLESTEROL,[5],59.33 mg/dL
same,CREATINE PHOSPHOKINASE,[5],117 u/L
same,CREATININE,[5],0.53 mg/dL
same,GLUCOSE,[5],189 mg/dL
same,PHOSPHORUS,[5],12.73 mg/dL
same,POTASSIUM,[5],6.83 MEQ/L
same,SODIUM,[5],150 MEQ/L
same,TOTAL BILIRUBIN,[5],0.37 mg/dL
same,TOTAL PROTEIN,[5],6.53 G/DL
same,BASOPHIL,[6],0%
same,EOSINOPHIL,[6],0.33%
same,ERYTHROCYTE COUNT,[6],6.22 x10E6/uL
same,HEMATOCRIT,[6],37.53%
same,HEMOGLOBIN,[6],14.57 G/DL
same,LEUKOCYTE COUNT,[6],11.73 x10E3/uL
same,LYMPHOCYTE,[6],88.33%
same,MEAN CORPUSCULAR HEMOGLOBIN,[6],23.43 pg
same,MEAN CORPUSCULAR HEMOGLOBIN CONCENTRATION,[6],38.8 G/DL
same,MEAN CORPUSCULAR VOLUME,[6],60.47 fL
same,MONOCYTE,[6],2.33%
same,NEUTROPHIL,[6],9%
same,PLATELET COUNT,[6],1085 x10E3/uL
same,ALANINE AMINOTRANSFERASE,[6],38 u/L
same,ALBUMIN,[6],3.53 G/DL
same,ALKALINE PHOSPHATASE,[6],295.33 u/L
same,ASPARTATE AMINOTRANSFERASE,[6],62.67 u/L
same,BLOOD UREA NITROGEN,[6],13.33 mg/dL
same,CHLORIDE,[6],104.67 MEQ/L
same,CHOLESTEROL,[6],62 mg/dL
same,CREATINE PHOSPHOKINASE,[6],114.67 u/L
same,CREATININE,[6],0.6 mg/dL
same,GLUCOSE,[6],171 mg/dL
same,PHOSPHORUS,[6],12.57 mg/dL
same,POTASSIUM,[6],6.4 MEQ/L
same,SODIUM,[6],152.33 MEQ/L
same,TOTAL BILIRUBIN,[6],0.27 mg/dL
same,TOTAL PROTEIN,[6],6.33 G/DL
